Data as given in PubChem BioAssay (NCI).
Several values for one entry are separate records, joined by “and”; a condition that tells them apart may be missing. Equal entries are not always repeated.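 Briefly, cells in 96-well plates were exposed to five compound concentrations for 48 h, and endpoints were estimated by linear interpolation. At the GI50, growth is halved. Definition used: TGI = concentration required for complete inhibition of growth.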

Assays:
Test in all cases: inhibition of tumour cell growth, NCI panel, 48 h
SK-MEL-28 melanoma = tested on: SK-MEL-28 melanoma
DU-145 prostate = tested on: DU-145 prostate
SW-620 colon = tested on: SW-620 colon
NCI-H226 lung = tested on: NCI-H226 lung
LOX IMVI melanoma = tested on: LOX IMVI melanoma
RPMI-8226 leukemia = tested on: RPMI-8226 leukemia
PC-3 prostate = tested on: PC-3 prostate
OVCAR-5 ovarian = tested on: OVCAR-5 ovarian
SR leukemia = tested on: SR leukemia
MOLT-4 leukemia = tested on: MOLT-4 leukemia
CCRF-CEM leukemia = tested on: CCRF-CEM leukemia
RXF 393 renal = tested on: RXF 393 renal

| SMILES | TGI (SK-MEL-28 melanoma) [µM] | TGI (DU-145 prostate) [µM] | TGI (SW-620 colon) [µM] | TGI (NCI-H226 lung) [µM] | TGI (LOX IMVI melanoma) [µM] | TGI (RPMI-8226 leukemia) | TGI (PC-3 prostate) [µM] | TGI (OVCAR-5 ovarian) [µM] | TGI (SR leukemia) [µM] | TGI (MOLT-4 leukemia) [µM] | TGI (CCRF-CEM leukemia) | TGI (RXF 393 renal) [µM] | GI50 (DU-145 prostate) [µM] | GI50 (RXF 393 renal) [µM] | GI50 (SW-620 colon) [µM] | GI50 (RPMI-8226 leukemia) [µM] | GI50 (PC-3 prostate) [µM] |
| --- | --- | --- | --- | --- | --- | --- | --- | --- | --- | --- | --- | --- | --- | --- | --- | --- | --- |
| COc1cc2c(c(OC)c1OC)C(=O)c1c(O)cc(C)c(OC)c1C2=O | > 100 | > 100 | > 100 | > 100 | > 100 | > 100 µM | > 100 | > 100 | > 100 | > 100 | – | – | – | – | – | – | – |
| COC(=O)[C@@H]1c2c(oc3cc(CO)cc(O)c3c2=O)C=C[C@H]1O | 18.1 | 11.7 | 10.4 | 51.5 | 12.4 | 9.72 µM | 20.1 | 22.8 | > 100 | > 100 | 25 µM | 10.1 | – | – | – | – | – |
| Clc1ccc(-c2cn3c(nc4ccccc43)c(-c3ccccc3)n2)cc1 | > 100 | > 100 | > 100 | > 100 | > 100 | > 100 µM | 47 | > 55.9 | > 100 | > 100 | > 100 µM | > 49.2 | – | – | – | – | – |
| CO[C@@]12C[C@H](CNC(=O)c3ccc[nH]3)O[C@@H]1NC(=O)N2 | > 100 | > 100 | > 100 | > 100 | > 100 | > 100 µM | > 100 | > 100 | > 100 | > 100 | – | – | – | – | – | – | – |
| OCCc1ccsc1-c1sc(-c2cc(CCO)c(-c3sc(-c4cc(CCO)c(-c5sccc5CCO)s4)cc3CCO)s2)cc1CCO | 3.27 | 4.53 | 3.98 | 3.86 | 2.47 | 2.32 µM | 2.67 | 2.85 | 2.59 | – | > 25.4 µM | 1.21 | – | – | – | – | – |
| Cc1ccc(S(=O)(=O)N/N=C2\C=CC3(CC2)C(=O)N(I)c2ccccc23)cc1 (stereo not drawn) | > 100 | – | > 100 | > 100 | > 100 | > 100 µM | > 100 | > 100 | > 100 | > 100 | > 100 µM | 98 | – | – | – | – | – |
| COC(=O)CN1CCN(c2cccc3c2CCCC3)CC1 | – | – | > 100 | 94.6 | > 100 | 85.8 µM | > 100 | > 100 | > 100 | > 100 | > 100 µM | > 100 | – | – | – | – | – |
| CC1(C)N=C(C(N)=O)c2[nH]cnc2N1 | > 100 | > 100 | > 100 | > 100 | > 100 | > 100 µM | > 100 | > 100 | > 100 | – | > 100 µM | > 100 | – | – | – | – | – |
| Nc1nc(Cl)c2ncn(CCCC(c3ccccc3)P(=O)(O)O)c2n1 (stereo not drawn) | > 100 | – | > 100 | – | > 100 | > 100 µM | – | > 100 | > 100 | – | > 100 µM | – | – | – | – | – | – |
| Cc1ccc(C2=CC(=O)/C(=C\C(=O)c3ccc(Br)cc3)O2)c(C)c1 | 40.1 | > 69.5 | – | 30.8 | > 21.1 | 10 µM | 11.6 | 56.7 | 12.6 | > 47.9 | > 100 µM | 14.1 | – | – | – | – | – |
| CC(=O)Oc1ccc2cc(Oc3cc(Cl)c(Cl)cc3Cl)c(=O)oc2c1 | 59.6 | > 100 | 28 | 36.7 | 28.9 | – | 33 | 71.2 | 67.6 | 30.4 | 37.9 µM | 31.5 | – | – | – | – | – |
| CC(=O)OC1CCn2c1nc1cc([N+](=O)[O-])c(C)cc12 (stereo not drawn) | > 100 | > 100 | > 100 | > 100 | > 100 | > 100 µM | > 100 | – | > 100 | > 100 | > 100 µM | > 100 | – | – | – | – | – |
| CCCC(=O)Nc1cc(C(=O)N2C[C@H]3C[C@@]34C2=CC(=O)c2[nH]cc(C)c24)n(COC)c1 | 1.28 | – | 82.2 | 5.18 | – | 2.84 µM and 0.776 µM | – | 50 | 0.0236 | – | 0.105 µM and 0.245 µM | – | 0.0776 | 0.106 | 0.184 | 0.176 | 0.147 |
| O=C(C[N+]12CN3CN(CN(C3)C1)C2)c1ccc(-c2ccccc2)cc1 | 37 | 40 | 30 | 49.3 | 30.6 | – | 34 | 37.6 | 12.2 | 42.9 | 5.37 µM | 37.7 | – | – | – | – | – |
| CCN(CC)c1c(C(C)(C)C)c(=O)n2ccsc2c1OC(C)=O | 30.8 | 38.7 | 30.6 | 29.2 | 31.4 | > 100 µM | 23.6 | 29.7 | – | > 100 | > 100 µM | 30.7 | – | – | – | – | – |
| CCOC(=O)Cc1c(C(=O)OCC)[n+](=O)c2cc(Cl)c(Cl)cc2n1[O-] | 17.4 | 3.68 | 4.08 | – | 4.65 | 2.18 µM | 4.69 | 5.24 | 2.11 | – | 6.29 µM | 4.91 | – | – | – | – | – |
| CC(=O)N[C@@H](Cc1ccc(O)cn1)C(=O)NCc1ccc(Cl)cc1 | > 100 | > 100 | > 100 | > 100 | > 100 | > 100 µM | > 100 | > 100 | – | > 100 | > 100 µM | > 100 | – | – | – | – | – |
| CC(C)(C)OC(=O)Cn1ncn(NC(=O)Cc2ccccc2)c1=S | > 10 | > 10 | > 10 | – | > 10 | – | > 10 | > 10 | > 10 | > 10 | > 10 µM | – | – | – | – | – | – |
| c1ccc(C(Oc2noc3ccccc23)c2ccccc2)cc1 | > 100 | 78.6 | > 100 | > 100 | > 100 | – | > 100 | > 100 | 51.6 | 71.7 | 49.7 µM | 35.9 | – | – | – | – | – |
| O=CN1CCN(c2ccc3ccc(=O)[nH]c3n2)CC1 | > 100 | > 100 | > 100 | > 100 | > 100 | > 100 µM | > 100 | > 100 | > 100 | > 100 | > 100 µM | – | – | – | – | – | – |
